Structures can show the parent of a compound that is named as a salt. Where two headings read alike, the source gives them in different places.
Columns and labels:
[1] = test system: rheumatic disorders and back conditions; test: treatment of rheumatic disorders and back conditions; type: in vivo
[2] = test system: writhing (pain); test: writhing test; type: in vivo; conditions: mice or rats
Description: Experiments have shown that the compound according to the invention is active in the "writhing test" on mice or rats (method cf. Siegmund et al., Proc. Soc. Exp. Biol. 95, (1957), 729-731).

[3] = test system: intestinal motility; test: inflammatory bowel disorders / intestinal motility; type: in vivo; conditions: inflammatory bowel disorder
[4] = test system: physical dependence; test: physical dependence / dependence potential; type: in vivo
[5] = test system: kappa-receptors; test: binding to kappa-receptors
[6] = test system: burns; test: treatment of burns and sunburn; type: in vivo; conditions: heat, flames, severe sunburn
[7] = test system: carrageenan-induced hyperalgesia; test: carrageenan-induced hyperalgesia model; type: in vivo; conditions: rats
[8] = anti-inflammatory, diuretic, anticonvulsive and neuroprotective actions (familiar methods); conditions: in vivo
[9] = side effects; conditions: in vivo
[10] = test system: neurodermatitis; test: treatment of neurodermatitis; type: in vivo
[11] = test system: inflammation-related hyperalgesias; test: analgesic action / inflammation-related hyperalgesias; conditions: in vivo
[12] = blood-brain barrier passage; conditions: due to its structure
[13] = pharmaceutical activity of crystal forms; type: in vivo
[14] = test system: allergic skin reactions; test: treatment of allergies to the sun; type: in vivo
[15] = pKa; type: physicochemical
[16] = Solubility of crystal types in aqueous solution; type: physicochemical
[17] = Solubility in methanol; type: physicochemical; conditions: organic solvent or mixture, at 20° C.
[18] = Solubility in water; type: physicochemical; conditions: at 20° C.
[19] = type: physicochemical
Method: In the case of these two types, not only their melting behavior differs but also their storage stabilities. […] During DSC determination (DSC=Differential Scanning Calorimetry)of the crystal form of type II, on slow heating above the melting point at approximately 200° C. the crystal type IV which melts at approximately 220-226° C. crystallizes out. Crystal type IV is also detected when a melt of type II (just above 200° C.) is suddenly cooled and stored at room temperature for a period of 12 to 16 hours. […] In contrast to this, however, by seeding with seed crystals of type […] the crystal form IV is especially obtained. Additionally, the solubility of the crystal type IV in aqueous solution is lower than that of type II.

[20] = listed as N-methyl-N-[(1S)-1-phenyl-2-((3S)-3-hydroxypyrrolidin-1-yl)ethyl]-2,2-diphenylac

SMILES: CN(C(=O)C(c1ccccc1)c1ccccc1)[C@H](CN1CC[C@H](O)C1)c1ccccc1 [compound according to the invention, N-methyl-N-[(1S)-1-phenyl-2-((3S)-3-hydroxypyrrolidin-1-yl)ethyl]-2,2-diphenylacetamide]
- efficacy in rheumatic disorders and back conditions ([1]; in vivo): particularly effective
- normal motility of the gastrointestinal tract ([1]; rheumatic disorders and back conditions): not adversely affected
- activity in the writhing test [2]: active
- intestinal motility normalization [3]: suitable for normalizing disorders of the intestinal motility
- intestinal motility normalization [3, 20]: normalizes the motility of the intestine or sets it in motion again
- dependence potential ([4]; attributed to no blood-brain barrier passage): no dependence potential
- tendency to physical dependence ([4]; in vivo): no or only a small tendency to physical dependence
- affinity to kappa-receptors [5]: high affinity
- treatment of burns [6]: particularly suitable in the treatment of burns
- action in carrageenan-induced hyperalgesia model [7]: Particularly strong actions
- anti-inflammatory action [8]: pronounced
- anticonvulsive action [8]: pronounced
- diuretic action [8]: pronounced
- neuroprotective action [8]: pronounced
- side effects [9]: no side effects have been found which would restrict the use
- side effects [9, 20]: without causing noticeable side effects
- inflammatory reactions, neurodermatitis [10]: favorably influenced
- itching, neurodermatitis [10]: the itching of the skin in this disorder subsides
- analgesic actions [11]: particularly good analgesic actions
- antagonism of inflammation-related hyperalgesias [11]: antagonize
- blood-brain barrier passage [12]: cannot pass through the blood-brain barrier
- dependence of pharmaceutical activity on crystal form ([13]; in vivo): relatively independent of the crystal form
- allergic skin reactions [14]: allergic skin reactions rapidly fade
- itching, allergies to the sun [14]: rapidly subsides

SMILES: CN(C(=O)C(c1ccccc1)c1ccccc1)[C@H](CN1CC[C@H](O)C1)c1ccccc1.Cl [Example 1, N-methyl-N-[(1S)-1-phenyl-2-((3S)-3-hydroxypyrrolidin-1-yl)ethyl]-2,2-diphenylacetamide hydrochloride]
- pKa [15]: 7.4
- solubility of crystal type IV relative to the solubility of type II [16]: 45% to 70
- solubility [17]: 42.6 mg/mL
- solubility [18]: 7.6 mg/mL

SMILES: CN(C(=O)C(c1ccccc1)c1ccccc1)[C@H](CN1CC[C@H](O)C1)c1ccccc1 [Comparison Example, N-methyl-N-[(1S)-1-phenyl-2-((3S)-3-hydroxypyrrolidin-1-yl)ethyl]-2.2-diphenylacetamide hydrochloride]
- pKa ([15]; read-out: pKa): 7.4
- stability of crystal form [19]: metastable
- storage at high humidity ([19]; atmospheric humidity approximately 73% to 95%): A form designated as type III is obtained
- storage at 170° C. ([19]; drying oven at 170° C.): a partial conversion into type IV was detected
- seven months' storage ([19]; seven months, room temperature): a start of conversion to the thermostable crystal modification IV
- solubility [17]: 63.1 mg/mL
- solubility [18]: 11.6 mg/mL

SMILES: CN(C(=O)C(c1ccccc1)c1ccccc1)[C@H](CN1CC[C@H](O)C1)c1ccccc1 [type I, N-methyl-N-[(1S)-1-phenyl-2-((3S)-3-hydroxypyrrolidin-1-yl)ethyl]-2,2-diphenylacetamide]
- conversion of solvate type I ([19]; slow heating releases solvent): readily converted into another crystal type

SMILES: CN(C(=O)C(c1ccccc1)c1ccccc1)[C@H](CN1CC[C@H](O)C1)c1ccccc1.Cl [N-methyl-N-[(1S)-1-phenyl-2-((3S)-3-hydroxypyrrolidin-1-yl)ethyl]-2,2-diphenylacetamide hydrochloride]
- effectiveness as medicament in all indication areas ([13]; all types of preparation forms): particularly effective
